Where a name gives a salt, the structure may show the parent alone.
Test system: Phosphorylated eIF4E
Test: peIF4E Signaling Cellular Assay (CisBio peIF4E HTRF)
Assay type: cell-based
Conditions: cells incubated with compound for 2 hrs at 37° C., 12-point curve
Method: Phosphorylated eIF4E is assayed using the CisBio peIF4E HTRF® assay kit (CisBio, catalogue No. 64EF4PEG). Cells are plated in 96-well tissue-culture treated plate in appropriate growth medium (90 μL). Compounds (10×) are diluted using 3-fold serial dilutions in cell culture medium and added to cells. Plates are incubated for 2 hrs at 37° C. The cell supernatant is carefully removed either by aspirating supernatant or by flicking the plate. Immediately 50 μL of supplemented lysis buffer (1×) is added and incubated for at least 30 minutes at room temperature under shaking. After homogenization by pipeting up and down, 16 μL of cell lysate is transferred from the 96-well cell-culture plate to a 384-well small volume white plate. 4 μL of premixed antibody solutions (vol/vol) is prepared in the detection buffer and added. The plate is covered with a plate sealer and incubated overnight at room temperature. The fluorescence emissions at two different wavelengths are read (665 nm and 620 nm) on a Wallac Victor2. Emission ratios are converted into percent inhibitions and imported into GraphPad Prism software. […] IC50 values are determined using a nonlinear regression model available in GraphPad Prism 5.

| Structure (SMILES) | IC50 [µM] |
| --- | --- |
| COc1cc(Nc2ncnc(N)c2C)cc2c1C(=O)NC21CCCCC1 [Cpd. No. 78, 6′-((6-amino-5-methylpyrimidin-4-yl)amino)-4′-methoxyspiro[cyclohexane-1,1′-isoindolin]-3′-one] | 1 to 100 |
| Cc1cc(Nc2ncncc2C#N)cc2c1C(=O)NC21CCN(C)CC1 [Cpd. No. 61, 4-((1′,4-dimethyl-3-oxospiro[isoindoline-1,4′-piperidin]-6-yl)amino)pyrimidine-5-carbonitrile trifluoroacetic acid salt] | 1 to 100 |
| CCc1cc(Nc2ncnc(N)c2C)cc2c1C(=O)NC21CCCCC1 [Cpd. No. 90, 6′-((6-amino-5-methylpyrimidin-4-yl)amino)-4′-ethylspiro [cyclohexane-1,1′-isoindolin]-3′-one] | 0.05 to 1 |
| Cc1c(N)ncnc1Nc1cc(O)c2c(c1)C1(CCCCC1)NC2=O [Cpd. No. 92, 6′-((6-amino-5-methylpyrimidin-4-yl)amino)-4′-hydroxyspiro[cyclohexane-1,1′-isoindolin]-3′-one] | 1 to 100 |
| Cc1cc(Nc2ncnc(N)c2OC(F)(F)F)cc2c1C(=O)NC21CCCCC1 [Cpd. No. 83, 6′-((6-amino-5-(trifluoromethoxy)pyrimidin-4-yl)amino)-4′-methylspiro[cyclohexane-1,1′-isoindolin]-3′-one] | < 0.05 |
| Cc1c(N)ncnc1Nc1cc(F)c2c(c1)C1(CCCCC1)NC2=O [Cpd. No. 89, 6′-((6-amino-5-methylpyrimidin-4-yl)amino)-4′-fluorospiro[cyclohexane-1,1′-isoindolin]-3′-one] | 0.05 to 1 |
| Cc1cc(Nc2ncnc(N)c2C)cc2c1C(=O)CC21CCCCC1 [Cpd. No. 110, 6′-((6-amino-5-methylpyrimidin-4-yl)amino)-4′-methylspiro[cyclohexane-1,1′-inden]-3′(2′H)-one] | 0.05 to 1 |
| COc1cncnc1Nc1cc(C)c2c(c1)C1(CCN(CC(F)F)CC1)NC2=O [Cpd. No. 65, 1′-(2,2-difluoroethyl)-6-((5-methoxypyrimidin-4-yl)amino)-4-methylspiro[isoindoline-1,4′-piperidin]-3-one] | 0.05 to 1 |
| Cc1cc(Nc2ncnc(N)c2C)cc2c1C(=O)NC21CCOCC1 [Cpd. No. 74, 6-((6-amino-5-methylpyrimidin-4-yl)amino)-4-methyl-2′,3′,5′,6′-tetrahydrospiro[isoindoline-1,4′-pyran]-3-one] | 0.05 to 1 |
| Cc1c(N)ncnc1Nc1cc(C(F)(F)F)c2c(c1)C1(CCCCC1)NC2=O [Cpd. No. 79, 6′-((6-amino-5-methylpyrimidin-4-yl)amino)-4′-(trifluoromethyl)spiro[cyclohexane-1,1′-isoindolin]-3′-one] | 0.05 to 1 |
| Cc1cc(Nc2ncnc(N)c2Cl)nc2c1C(=O)NC21CCCCC1 [Cpd. No. 73, 2′-((6-amino-5-chloropyrimidin-4-yl)amino)-4′-methylspiro[cyclohexane-1,7′-pyrrolo[3,4-b]pyridin]-5′(6′H)-one] | < 0.05 |
| Cc1cc(Nc2ncnc(N)c2C)cc2c1C(=O)NC21CCN(CC(F)F)CC1 [Cpd. No. 66, 6-((6-amino-5-methylpyrimidin-4-yl)amino)-1′-(2,2-difluoroethyl)-4-methylspiro[isoindoline-1,4′-piperidin]-3-one] | 0.05 to 1 |
| Cc1cc(Nc2ncncc2C#N)cc2c1C(=O)NC21CCCCC1 [Cpd. No. 63, 4-((4′-methyl-3′-oxospiro[cyclohexane-1,1′-isoindolin]-6′-yl)amino)pyrimidine-5-carbonitrile] | 0.05 to 1 |
| Cc1cc(Nc2ncnc(N)c2C#N)cc2c1C(=O)NC21CCCCC1 [Cpd. No. 77, 4-amino-6-((4′-methyl-3′-oxospiro[cyclohexane-1,1′-isoindolin]-6′-yl)amino)pyrimidine-5-carbonitrile] | < 0.05 |
| Cc1c(N)ncnc1Nc1cc(C#N)c2c(c1)C1(CCCCC1)NC2=O [Cpd. No. 91, 6′-((6-amino-5-methylpyrimidin-4-yl)amino)-3′-oxospiro[cyclohexane-1,1′-isoindoline]-4′-carbonitrile] | 1 to 100 |
| COc1c(N)ncnc1Nc1cc(C)c2c(c1)C1(CCN(CC(F)F)CC1)NC2=O [Cpd. No. 69, 6-((6-amino-5-methoxypyrimidin-4-yl)amino)-1′-(2,2-difluoroethyl)-4-methylspiro[isoindoline-1,4′-piperidin]-3-one] | 0.05 to 1 |
| Cc1cc(Nc2ncnc(N)c2C(F)(F)F)cc2c1C(=O)NC21CCCCC1 [Cpd. No. 80, 6′-((6-amino-5-(trifluoromethyl)pyrimidin-4-yl)amino)-4′-methylspiro[cyclohexane-1,1′-isoindolin]-3′-one] | 0.05 to 1 |
| Cc1cc(Nc2ncncc2C#N)cc2c1C(=O)NC21CCN(CC(F)F)CC1 [Cpd. No. 67, 4-((1′-(2,2-difluoroethyl)-4-methyl-3-oxospiro[isoindoline-1,4′-piperidin]-6-yl)amino)pyrimidine-5-carbonitrile] | 1 to 100 |

| Structure (SMILES) | IC50 [µM] |
| --- | --- |
| COc1c(N)ncnc1Nc1cc(C)c2c(c1)C1(CCN(C)CC1)NC2=O [Cpd. No. 68, 6-((6-amino-5-methoxypyrimidin-4-yl)amino)-1′,4-dimethylspiro[isoindoline-1,4′-piperidin]-3-one] | 0.05 to 1 |
| Cc1c(N)ncnc1Nc1cc(C(F)F)c2c(c1)C1(CCCCC1)NC2=O [Cpd. No. 88, 6′-((6-amino-5-methylpyrimidin-4-yl)amino)-4′-(difluoromethyl)spiro[cyclohexane-1,1′-isoindolin]-3′-one] | 0.05 to 1 |
| Cc1cc(Nc2cc(N)ncn2)nc2c1C(=O)NC21CCCCC1 [Cpd. No. 70, 2′-((6-aminopyrimidin-4-yl)amino)-4′-methylspiro[cyclohexane-1,7′-pyrrolo[3,4-b]pyridin]-5′(6′H)-one] | < 0.05 |
| COc1cncnc1Nc1cc(C)c2c(c1)C1(CCN(C)CC1)NC2=O [Cpd. No. 60, 6-((5-methoxypyrimidin-4-yl)amino)-1′,4-dimethylspiro [isoindoline-1,4′-piperidin]-3-one] | 0.05 to 1 |
| Cc1cc(Nc2ncnc(N)c2OC(F)F)cc2c1C(=O)NC21CCCCC1 [Cpd. No. 84, 6′-((6-amino-5-(difluoromethoxy)pyrimidin-4-yl)amino)-4′-methylspiro[cyclohexane-1,1′-isoindolin]-3′-one] | 0.05 to 1 |
| Cc1cc(Nc2ncnc(N)c2C)c(Cl)c2c1C(=O)NC21CCCCC1 [Cpd. No. 96, 6′-((6-amino-5-methylpyrimidin-4-yl)amino)-7′-chloro-4′-methylspiro[cyclohexane-1,1′-isoindolin]-3′-one] | 1 to 100 |
| Cc1cc(Nc2ncnc(N)c2OCCN)cc2c1C(=O)NC21CCCCC1 [Cpd. No. 81, 6′-((6-amino-5-(2-aminoethoxy)pyrimidin-4-yl)amino)-4′-methylspiro[cyclohexane-1,1′-isoindolin]-3′-one hydrochloride] | 0.05 to 1 |
| Cc1cc(Nc2ncnc(N)c2C)cc2c1C(=O)NC21CCN(C)CC1 [Cpd. No. 62, 6-((6-amino-5-methylpyrimidin-4-yl)amino)-1′,4-dimethylspiro[isoindoline-1,4′-piperidin]-3-one] | 1 to 100 |
| CSc1c(N)ncnc1Nc1cc(C)c2c(c1)C1(CCCCC1)NC2=O [Cpd. No. 85, 6′-((6-amino-5-(methylthio)pyrimidin-4-yl)amino)-4′-methylspiro[cyclohexane-1,1′-isoindolin]-3′-one trifluoroacetic acid salt] | 0.05 to 1 |
| Cc1cc(Nc2ncnc3[nH]ccc23)cc2c1C(=O)NC21CCCCC1 [Cpd. No. 75, 6′-((7H-pyrrolo[2,3-d]pyrimidin-4-yl)amino)-4′-methylspiro[cyclohexane-1,1′-isoindolin]-3′-one] | < 0.05 |
| COc1c(Nc2ncnc(N)c2C)cc(C)c2c1C1(CCCCC1)NC2=O [Cpd. No. 94, 6′-((6-amino-5-methylpyrimidin-4-yl)amino)-7′-methoxy-4′-methylspiro[cyclohexane-1,1′-isoindolin]-3′-one] | 0.05 to 1 |
| Cc1cc(Nc2ncnc(N)c2OCCCN)cc2c1C(=O)NC21CCCCC1 [Cpd. No. 87, 6′-((6-amino-5-(3-aminopropoxy)pyrimidin-4-yl)amino)-4′-methylspiro[cyclohexane-1,1′-isoindolin]-3′-one hydrochloride salt] | 0.05 to 1 |
| CCOc1c(N)ncnc1Nc1cc(C)c2c(c1)C1(CCCCC1)NC2=O [Cpd. No. 76, 6′-((6-amino-5-ethoxypyrimidin-4-yl)amino)-4′-methylspiro[cyclohexane-1,1′-isoindolin]-3′-one] | 0.05 to 1 |
| Cc1cc(Nc2ncnc(N)c2C)cc2c1C(=O)NC2 [Cpd. No. 106, 5-((6-amino-5-methylpyrimidin-4-yl)amino)-7-methylisoindolin-1-one] | 1 to 100 |
| Cc1cc(Nc2ncnc(N)c2S(C)(=O)=O)cc2c1C(=O)NC21CCCCC1 [Cpd. No. 86, 6′-((6-amino-5-(methylsulfonyl)pyrimidin-4-yl)amino)-4′-methylspiro[cyclohexane-1,1′-isoindolin]-3′-one] | 0.05 to 1 |
| Cc1cc(Nc2ncnc(N)c2C)c(O)c2c1C(=O)NC21CCCCC1 [Cpd. No. 93, 6′-((6-amino-5-methylpyrimidin-4-yl)amino)-7′-hydroxy-4′-methylspiro[cyclohexane-1,1′-isoindolin]-3′-one] | 0.05 to 1 |
| Cc1cc(Nc2ncncc2C(N)=O)cc2c1C(=O)NC21CCCCC1 [Cpd. No. 64, 4-((4′-methyl-3′-oxospiro[cyclohexane-1,1′-isoindolin]-6′-yl)amino)pyrimidine-5-carboxamide] | 0.05 to 1 |

From patent publication US10112955B2, “Isoindoline, azaisoindoline, dihydroindenone and dihydroazaindenone inhibitors of Mnk1 and Mnk2” (eFFECTOR THERAPEUTICS, INC., priority 2015, dated 2018)
